The values that follow are results of earlier work, collected in US20240401031A1, “Platform Using iPSC-Derived Cardiomyocytes Carrying Gene Variants as Models of Cardiac Disease and Drug-Response” (SRI INTERNATIONAL, priority 2021, published 2024).

The structures appear in SMILES notation.

For the series the following is noted: source CredibleMeds.
In the case of `C[C@@H]1CN(c2c(F)c(N)c3c(=O)c(C(=O)O)cn(C4CC4)c3c2F)C[C@H](C)N1` [Sparfloxacin], the “Risk (Torsade de Pointes)” value is on record as “(KR)”.
As to `Cc1nc(Nc2ncc(C(=O)Nc3c(C)cccc3Cl)s2)cc(N2CCN(CCO)CC2)n1` [Dasatinib], the “Risk (Torsade de Pointes)” value was “(PR)”.
As to `CNC[C@H](O)c1cccc(O)c1` [Phenylephrine], the “Risk (Torsade de Pointes)” value is “(SR)”.
On to `COc1cc(NC(C)CCCN)c2ncccc2c1` (stereo not drawn) [Primaquine], for which the “Risk (Torsade de Pointes)” value is given as “(PR)”.
`CC(=O)NC[C@H]1CN(c2ccc(N3CCOCC3)c(F)c2)C(=O)O1` [Linezolid]: the “Risk (Torsade de Pointes)” value is recorded as “(PR)”.
`O=C1Cc2cc(CCN3CCN(c4nsc5ccccc45)CC3)c(Cl)cc2N1` [Ziprasidone]: the “Risk (Torsade de Pointes)” value is reported as “(CR)”.
On to `FCOC(C(F)(F)F)C(F)(F)F` [Sevoflurane], for which the “Risk (Torsade de Pointes)” value is given as “(KR)”.
Regarding `NS(=O)(=O)c1cc2c(cc1C(F)(F)F)NC(Cc1ccccc1)NS2(=O)=O` (stereo not drawn) [Bendroflumethiazide], the “Risk (Torsade de Pointes)” value is on record as “(CR)”.
`Cc1ccccc1N1C(=O)c2cc(S(N)(=O)=O)c(Cl)cc2NC1C` (stereo not drawn) [Metolazone]: the “Risk (Torsade de Pointes)” value was “(CR)”.
Regarding `CCc1nc(C(N)=O)c(Nc2ccc(N3CCC(N4CCN(C)CC4)CC3)c(OC)c2)nc1NC1CCOCC1` [Gilteritinib], the “Risk (Torsade de Pointes)” value is “(PR)”.
Take `CN1C2CCCC1CC(NC(=O)c1nn(C)c3ccccc13)C2` (stereo not drawn) [Granisetron]: the “Risk (Torsade de Pointes)” value is “(PR)”.
On to `C[C@H](N)Cc1ccccc1` [Dextroamphetamine], for which the “Risk (Torsade de Pointes)” value is “(SR)”.
For `CCC[C@H](NC(=O)[C@@H]1[C@H]2CCC[C@H]2CN1C(=O)[C@@H](NC(=O)[C@@H](NC(=O)c1cnccn1)C1CCCCC1)C(C)(C)C)C(=O)C(=O)NC1CC1` [Telaprevir], the “Risk (Torsade de Pointes)” value was “(CR)”.
On to `CC(CN1c2ccccc2Sc2ccccc21)N(C)C` (stereo not drawn) [Promethazine], for which the “Risk (Torsade de Pointes)” value was “(PR)”.
`C[C@]1(COc2ccc(N3CCC(Oc4ccc(OC(F)(F)F)cc4)CC3)cc2)Cn2cc([N+](=O)[O-])nc2O1` [Delamanid]: the “Risk (Torsade de Pointes)” value was “(PR)”.
As to `COc1ccc(CC(C)(C)NC[C@H](O)c2cc(O)cc3c2OCC(=O)N3)cc1` [Olodaterol], the “Risk (Torsade de Pointes)” value was “(SR)”.
As for `Cc1[nH]c2ccccc2c1CCNCc1ccc(/C=C/C(=O)NO)cc1` [Panobinostat], the “Risk (Torsade de Pointes)” value was “(PR)”.
As for `COC(=O)[C@H]1[C@@H](OC(=O)c2ccccc2)C[C@@H]2CC[C@H]1N2C` [Cocaine], the “Risk (Torsade de Pointes)” value is on record as “(KR)”.
Regarding `OCCN1CCN(CC/C=C2/c3ccccc3Sc3ccc(Cl)cc32)CC1` [Zuclopenthixol], the “Risk (Torsade de Pointes)” value is “(PR)”.
In the case of `CC(N)Cc1ccccc1` (stereo not drawn) [Amphetamine], the “Risk (Torsade de Pointes)” value is listed as “(SR)”.
Take `CC(C)C[C@H](NC(=O)[C@H](Cc1ccccc1)NC(=O)c1cnccn1)B(O)O` [Bortezomib]: the “Risk (Torsade de Pointes)” value is given as “(PR)”.
As to `CN1CC[C@@H](NC(=O)Nc2ccc(C#N)cc2)C[C@@H]1c1nc2ccccc2[nH]1` [Glasdegib], the “Risk (Torsade de Pointes)” value was “(PR)”.
Take `CC[C@H]1CN2CC[C@H]1C[C@@H]2[C@@H](O)c1ccnc2ccc(OC)cc12` [Hydroquinidine]: the “Risk (Torsade de Pointes)” value is “(KR)”.
`N=C(N)c1ccc(OCCCCCOc2ccc(C(=N)N)cc2)cc1` [Pentamidine]: the “Risk (Torsade de Pointes)” value is recorded as “(KR)”.
As to `Cc1c(O)cccc1C(=O)N[C@@H](CSc1ccccc1)[C@H](O)CN1C[C@H]2CCCC[C@H]2C[C@H]1C(=O)NC(C)(C)C` [Nelfinavir], the “Risk (Torsade de Pointes)” value was “(CR)”.
`CN(C)CC/C=C1/c2ccccc2Sc2ccc(Cl)cc21` [Chlorprothixene]: the “Risk (Torsade de Pointes)” value is “(KR)”.
In the case of `O=C(c1ccc(F)cc1)C1CCN(CCn2c(=O)[nH]c3ccccc3c2=O)CC1` [Ketanserin], the “Risk (Torsade de Pointes)” value is on record as “(PR)”.
Take `CCCCCCCCc1ccc(CCC(N)(CO)CO)cc1` [Fingolimod]: the “Risk (Torsade de Pointes)” value was “(PR)”.
Regarding `CN(C)CCOc1ccc(/C(=C(/CCCl)c2ccccc2)c2ccccc2)cc1` [Toremifene], the “Risk (Torsade de Pointes)” value was “(PR)”.
Regarding `CCCS(=O)(=O)Nc1ccc(F)c(C(=O)c2c[nH]c3ncc(-c4ccc(Cl)cc4)cc23)c1F` [Vemurafenib], the “Risk (Torsade de Pointes)” value is recorded as “(PR)”.
Take `CC(C)(C)NCC(O)c1cc(O)cc(O)c1` (stereo not drawn) [Terbutaline]: the “Risk (Torsade de Pointes)” value is listed as “(SR)”.
For the compound `COc1cc(Nc2c(C#N)cnc3cc(OCCCN4CCN(C)CC4)c(OC)cc23)c(Cl)cc1Cl` [Bosutinib], the “Risk (Torsade de Pointes)” value is listed as “(PR)”.
With `CCN1CCC[C@H]1CNC(=O)c1cc(S(N)(=O)=O)ccc1OC` [Levosulpiride], the “Risk (Torsade de Pointes)” value is listed as “(KR)”.
As for `CN(C)CCCC1(c2ccc(F)cc2)OCc2cc(C#N)ccc21` (stereo not drawn) [Citalopram], the “Risk (Torsade de Pointes)” value was “(KR)”.
`N#Cc1ccnc(N2C(=O)CC[C@H]2C(=O)N(c2cncc(F)c2)[C@H](C(=O)NC2CC(F)(F)C2)c2ccccc2Cl)c1` [Ivosidenib]: the “Risk (Torsade de Pointes)” value is listed as “(PR)”.
On to `COc1ccc(CCN2CCC(Nc3nc4ccccc4n3Cc3ccc(F)cc3)CC2)cc1` [Astemizole], for which the “Risk (Torsade de Pointes)” value is “(KR)”.
As for `C=C1C[C@@H]2CC[C@@]34C[C@H]5O[C@H]6[C@@H](O3)[C@H]3O[C@H](CC[C@@H]3O[C@H]6[C@H]5O4)CC(=O)C[C@@H]3[C@@H](OC)[C@@H](C[C@H](O)CN)O[C@H]3C[C@H]3O[C@@H](CC[C@@H]1O2)C[C@@H](C)C3=C` [Eribulin], the “Risk (Torsade de Pointes)” value was “(PR)”.
Consider `CCc1cc2c(cc1CC)CC(NC[C@H](O)c1ccc(O)c3[nH]c(=O)ccc13)C2` [Indacaterol], for which the “Risk (Torsade de Pointes)” value was “(SR)”.
With `COc1ccc(Cc2nccc3cc(OC)c(OC)cc23)cc1OC` [Papaverine], the “Risk (Torsade de Pointes)” value is on record as “(KR)”.
Consider `CNCCCC12CCC(c3ccccc31)c1ccccc12` [Maprotiline], for which the “Risk (Torsade de Pointes)” value is “(PR)”.
As to `COc1ccccc1OCC(O)CN1CCN(CC(=O)Nc2c(C)cccc2C)CC1` (stereo not drawn) [Ranolazine], the “Risk (Torsade de Pointes)” value is on record as “(CR)”.
On to `CN1CCCCC1CCN1c2ccccc2Sc2ccc([S+](C)[O-])cc21` (stereo not drawn) [Mesoridazine], for which the “Risk (Torsade de Pointes)” value is reported as “(KR)”.
`C=C[C@]1(C)C[C@@H](OC(=O)CS[C@@H]2CC[C@@H](N)C[C@H]2O)[C@]2(C)[C@H](C)CC[C@]3(CCC(=O)[C@H]32)[C@@H](C)[C@@H]1O` [Lefamulin]: the “Risk (Torsade de Pointes)” value is given as “(PR)”.
For `CC(C)(C)c1nc(-c2cccc(NS(=O)(=O)c3c(F)cccc3F)c2F)c(-c2ccnc(N)n2)s1` [Dabrafenib], the “Risk (Torsade de Pointes)” value is “(PR)”.
In the case of `CN1CCN2c3ccccc3Cc3ccccc3C2C1` (stereo not drawn) [Mianserin], the “Risk (Torsade de Pointes)” value was “(PR)”.
For `CNC[C@H](O)c1ccc(O)c(O)c1` [Epinephrine], the “Risk (Torsade de Pointes)” value is on record as “(SR)”.
As for `CCC/N=C1\S/C(=C\c2ccc(OC[C@H](O)CO)c(Cl)c2)C(=O)N1c1ccccc1C` [Ponesimod], the “Risk (Torsade de Pointes)” value is “(PR)”.
In the case of `[Cs]` [Cesium], the “Risk (Torsade de Pointes)” value is recorded as “(KR)”.
On to `Cn1c(CCCC(=O)O)nc2cc(N(CCCl)CCCl)ccc21` [Bendamustine], for which the “Risk (Torsade de Pointes)” value is given as “(PR)”.
For the compound `COc1cccc2c1C(=O)c1c(O)c3c(c(O)c1C2=O)C[C@@](O)(C(=O)CO)C[C@@H]3O[C@H]1C[C@H](N)[C@@H](O)[C@H](C)O1` [Epirubicin], the “Risk (Torsade de Pointes)” value was “(PR)”.
On to `O=C(c1ccc(F)c(F)c1Nc1ccc(I)cc1F)N1CC(O)([C@@H]2CCCCN2)C1` [Cobimetinib], for which the “Risk (Torsade de Pointes)” value was “(PR)”.
Consider `CN[C@H]1CC[C@@H](c2ccc(Cl)c(Cl)c2)c2ccccc21` [Sertraline], for which the “Risk (Torsade de Pointes)” value is “(CR)”.
Take `CCN(CC)CCNC(=O)c1c(C)[nH]c(/C=C2\C(=O)Nc3ccc(F)cc32)c1C` [Sunitinib]: the “Risk (Torsade de Pointes)” value is “(PR)”.
In the case of `COc1cc2c(cc1OC)CC(=O)N(CCCN(C)C[C@H]1Cc3cc(OC)c(OC)cc31)CC2` [Ivabradine], the “Risk (Torsade de Pointes)” value was “(CR)”.
With `O=C1NCCN1CCN1CCC(c2cn(-c3ccc(F)cc3)c3ccc(Cl)cc23)CC1` [Sertindole], the “Risk (Torsade de Pointes)” value is on record as “(KR)”.
Take `Cc1cc(Nc2ncc(Cl)c(Nc3ccccc3S(=O)(=O)C(C)C)n2)c(OC(C)C)cc1C1CCNCC1` [Ceritinib]: the “Risk (Torsade de Pointes)” value is on record as “(PR)”.
As for `CN(C)CCCN1c2ccccc2CCc2ccccc21` [Imipramine], the “Risk (Torsade de Pointes)” value was “(PR)”.
For the compound `CC[C@@H]([C@H](C)O)n1ncn(-c2ccc(N3CCN(c4ccc(OC[C@@H]5CO[C@@](Cn6cncn6)(c6ccc(F)cc6F)C5)cc4)CC3)cc2)c1=O` [Posaconazole], the “Risk (Torsade de Pointes)” value is on record as “(CR)”.
Take `CC(=O)N1CCN(c2ccc(OCC3COC(Cn4ccnc4)(c4ccc(Cl)cc4Cl)O3)cc2)CC1` (stereo not drawn) [Ketoconazole]: the “Risk (Torsade de Pointes)” value was “(CR)”.
With `CN1CC2c3ccccc3Oc3ccc(Cl)cc3C2C1` (stereo not drawn) [Asenapine], the “Risk (Torsade de Pointes)” value is “(PR)”.
Consider `COc1cccc(C2(O)CCCCC2CN(C)C)c1` (stereo not drawn) [Tramadol], for which the “Risk (Torsade de Pointes)” value is recorded as “(PR)”.
With `O=C(CCCN1CC=C(n2c(=O)[nH]c3ccccc32)CC1)c1ccc(F)cc1` [Droperidol], the “Risk (Torsade de Pointes)” value is “(KR)”.
For `NC(N)=Nc1nc(CSCCC(N)=NS(N)(=O)=O)cs1` [Famotidine], the “Risk (Torsade de Pointes)” value is recorded as “(CR)”.
Regarding `CC(C)N(CCC(C(N)=O)(c1ccccc1)c1ccccn1)C(C)C` (stereo not drawn) [Disopyramide], the “Risk (Torsade de Pointes)” value is on record as “(KR)”.
In the case of `CNC(=O)c1cc(Oc2ccc(NC(=O)Nc3ccc(Cl)c(C(F)(F)F)c3)cc2)ccn1` [Sorafenib], the “Risk (Torsade de Pointes)” value is recorded as “(PR)”.
Turning to `CCC(=O)C(CC(C)N(C)C)(c1ccccc1)c1ccccc1` (stereo not drawn) [Methadone], the “Risk (Torsade de Pointes)” value is “(KR)”.
In the case of `COc1ccc2[nH]c([S+]([O-])Cc3ncc(C)c(OC)c3C)nc2c1` (stereo not drawn) [Omeprazole], the “Risk (Torsade de Pointes)” value is reported as “(CR)”.
As for `C[C@@H]1C[C@H]2[C@@H]3C[C@H](F)C4=CC(=O)C=C[C@]4(C)[C@@]3(F)[C@@H](O)C[C@]2(C)[C@@]1(O)C(=O)SCF` [Fluticasone], the “Risk (Torsade de Pointes)” value is recorded as “(SR)”.
As to `C[C@@H](Oc1cc(-c2cnn(C3CCNCC3)c2)cnc1N)c1c(Cl)ccc(F)c1Cl` [Crizotinib], the “Risk (Torsade de Pointes)” value is on record as “(PR)”.
